This passage reports inhibition, IC50 and GI50 results from patent US20260159486A1, “BENZO[H]QUINAZOLINE-4-AMINE DERIVATIVES FOR THE TREATMENT OF CANCER” (Redona Therapeutics, Inc., priority 2021, published 2026).

The test system of assay [1] is phospho-SRSF6 in MDA-MB-468 cells. Put plainly: Inhibition of phospho-SRSF6 levels in MDA-MB-468 cells (Western blot). The format is cell-based. As to conditions: Homo sapiens, 2 hours, compared to DMSO control; for inhibition at 0.01 µM: 10 nM, read-out: >50% p-SRSF6 reduction at 10 nM; for inhibition at 0.1 µM: 100 nM, read-out: >50% p-SRSF6 reduction at 100 nM. The procedure:
FIG. 1: FIG. 1 provides a representative Western blot showing reduction of phosphorylated-SRSF6 (P—SRSF6) in MDA-MB 468 cells by compounds of the invention. GAPDH was probed for by Western blotting to control for equal protein loading and for normalization of samples. The numbers below the blots show percent inhibition of the P—SRSF6 signal at 100 nM (A) or 10 nM (B) compared to DMSO control.
Assessment of Inhibition of Phospho-SRSF6 Levels in MDA-MB-468 Cells
MDA-MB-468 cells (ATCC, HTB-132) were cultured in DMEM (BioConcept cat. no. 1-26F03) supplemented with 10% FBS (Sigma cat. no. F9665), […] (Sigma cat. no. S8636), 1% Penicillin-Streptomycin (BioConcept cat. no. 4-01FOO-H). When cells reached a density of 70% o in 6-well plates (TPP cat. no. 92006), they were treated either with the test compound vehicle DMSO, or with experimental compounds at a final concentration of either 10 or 100 nM for 2 hours. Thereafter, the culture medium was removed and cells were collected by scraping in Lysis Buffer (20 mM Tris HCl pH7.5, 150 mM NaCl, 1 mM EGTA, 1 mM EDTA, 1% o Triton and 1% o NP-40) containing protease and phosphatase inhibitors (Halt™ Protease&Phosphatase inhibitor cocktail 100× ThermioScientific cat. no. 1861281) and 1 mM PMSF (Fluka cat. no. 93482). Cleared lysates were stored in Eppendorfftubes at −80° C. until use, and protein concentration in lysates was determined using Pierce 660 nm Protein Assay Reagent (ThermioScientific cat. no. 22660). 20 μg proteins were diluted in 4× Laemmli buffer (Biorad cat. no. 161-0747) containing 10% beta-mercaptoethanol, separated by SDS-PAGE using 10% gels, and then transferred to PVDF membranes (Trans Blot Turbo Transfer Pack BioRad cat. no. 1704156) by Trans-Blot® Turbo™ System semidry blotting methodology (BioRad). Primary antibodies were incubated in TBS-0.1% Tween-20 buffer containing 3% BSA Bovine Albumin Fr.V (Millipore cat. no. 81-053-3) overnight at 4° C. The following primary antibodies were used: Mouse anti-phosphoepitope SR proteins clone 1H4 (Millipore cat. no. MABE50) diluted 1:5000, and rabbit anti-GAPDH clone 14C10 (Cell Signaling cat. no. 2118S) to control for equal protein loading, diluted 1:2000. HRP-conjugated secondary antibodies were incubated one hour at room temperature diluted 1:5000 in TBS-0.1% Tween-20 buffer containing […] nonfat-dried bovine milk (Sigma cat. no. M7409). The following secondary antibodies were used: Goat anti-mouse-HRP (Jackson cat. no. 115-035-146) and goat anti-rabbit-HRP (Jackson cat. no. 111-035-144). Membranes were incubated with ECL Prime Western Blot Detection Reagent (Amersham cat. no. RPN2236) to detect specific signals using Fusion SOLO S device (Vilber Lourmat). Pixel intensity of the phopsho-SRSF6 (MW 55 kDa in reference to markers) and GAPDH (MW 37 kDa) signals in the Western blots were determined using Evolution-Capt image analysis software (v17.01, Vilber Lourmat). DMSO control was used to set the phospho-SRSF6 signal at baseline, phospho-SRSF6 signals for each sample were normalized by the respective GAPDH signals and percent intensity of P—SRSF6 signal at 10 and 100 nM compound compared to DMSO control was calculated (see FIG. 1).

Another assay deals with T1, recombinant human CLK3 (Homo sapiens, UniProt P49761).
T1 construct: purchased Thermo Fisher Scientific PV3826
T1 sequence (P49761 whole entry): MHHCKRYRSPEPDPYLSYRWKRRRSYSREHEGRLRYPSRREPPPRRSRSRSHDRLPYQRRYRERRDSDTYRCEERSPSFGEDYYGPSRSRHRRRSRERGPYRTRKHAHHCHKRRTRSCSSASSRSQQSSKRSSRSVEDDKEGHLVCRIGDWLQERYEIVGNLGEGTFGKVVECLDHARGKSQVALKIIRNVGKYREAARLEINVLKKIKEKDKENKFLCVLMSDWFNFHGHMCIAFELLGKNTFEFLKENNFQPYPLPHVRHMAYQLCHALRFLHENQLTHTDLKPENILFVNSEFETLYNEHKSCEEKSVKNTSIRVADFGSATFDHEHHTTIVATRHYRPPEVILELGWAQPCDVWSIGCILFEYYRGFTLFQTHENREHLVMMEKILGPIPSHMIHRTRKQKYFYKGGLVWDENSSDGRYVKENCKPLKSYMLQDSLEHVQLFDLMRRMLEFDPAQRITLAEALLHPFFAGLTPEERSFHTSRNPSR
The experiment in a line: CLK3 kinase assay (LANCE Ultra). The settings on record: CLK3 0.5 nM, ATP 300 μM, 3 hours at 30° C. The format is biochemical. In a few lines: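 Recombinant human CLK3 (0.5 nM) with ULight-CREBtide (50 nM) and 300 μM ATP, 3 h at 30 °C in kinase buffer; EDTA stop, then Eu-anti-phospho-CREB antibody (2 nM, 1 h RT), TR-FRET read at 665/620 nm. Inhibition normalized to DMSO and no-ATP wells; IC50 from 4-parameter fit, ten 1:3 concentrations in duplicate.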

Another assay relates to CAL-51 cells. Put plainly: CAL-51 proliferation assay. The format is cell-based. The settings on record: YO-PRO-1 Iodide readout. A digest of the protocol:
(§1)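 Cells seeded at 750 per well, treated next day for 72 h at 37 °C with 0.5% final DMSO. Cell number read by YO-PRO-1 fluorescence after lysis, normalized to DMSO (100%) and time-zero cells (0%). GI50 from 4-parameter logistic fit, maximum constrained to 100%.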

The next assay has as its system MDA-MB-231 cells. The experiment in a line: MDA-MB-231 proliferation assay. The format is cell-based. As to conditions: YO-PRO-1 Iodide readout. In a few lines:
as §1

Bounds are passed on as bounds.

Usually IC50 stands for the point on the concentration scale where inhibition reaches its midpoint. For orientation: GI50 means the concentration at which growth is held to half of that of the control. For `CC1(C)Cc2c(ccc(O[C@H]3CC[C@H](N)CC3)c2N2CCC(O)C2)-c2ncnc(N)c21` (single isomer, unassigned) [Example 16, 1-[4-amino-8-(trans-4-aminocyclohexoxy)-5,5-dimethyl-6H-benzo[h]quinazolin-7-yl]pyrrolidin-3-ol], the inhibition at 0.01 µM in assay [1] was greater than 50%. Further, the inhibition at 0.1 µM in assay [1] is greater than 50%. In addition, at recombinant human CLK3, the concentration for half-maximal inhibition (IC50) is less than 30 nM. For the same molecule, the GI50 in the assay on CAL-51 cells (72 hours) and in the assay with MDA-MB-231 cells (72 hours) was less than 100 nM throughout.
With `Nc1ncnc2c1C1(CCCC1)Cc1c-2ccc(O[C@H]2CC[C@H](N)CC2)c1N` [Example 37, 8-(trans-4-aminocyclohexoxy)spiro[6H-benzo[h]quinazoline-5,1′-cyclopentane]-4,7-diamine], in assay [1], the inhibition at 0.01 µM was greater than 50% and the inhibition at 0.1 µM was greater than 50%. Further, at recombinant human CLK3, the IC50 was in the range of 30 to 100 nM. The GI50 in the assay on CAL-51 cells (Homo sapiens, CAL-51, 72 h) is less than 100 nM. The GI50 in the assay with MDA-MB-231 cells (Homo sapiens, MDA-MB-231, 72 h) was in the range of 100 to 2000 nM.
In the case of `CN[C@H]1CC[C@H](Oc2ccc3c(c2N(C)CCC#N)CC(C)(C)c2c(N)ncnc2-3)CC1` [Example 99, 3-[[4-amino-5,5-dimethyl-8-[trans-4-(methylamino)cyclohexoxy]-6H-benzo[h]quinazolin-7-yl]-methyl-amino]propanenitrile], the concentration for half-maximal inhibition (IC50) on recombinant human CLK3 was less than 30 nM. Besides, the GI50 in the assay on CAL-51 cells (Homo sapiens, CAL-51, 72 h) is less than 100 nM; with MDA-MB-231 cells (Homo sapiens, MDA-MB-231, 72 h), less than 100 nM.
As for `CN(C(=O)CO)c1c(O[C@H]2CC[C@H](N)CC2)ccc2c1CC(C)(C)c1c(N)ncnc1-2` [Example 41, N-[4-amino-8-(trans-4-aminocyclohexoxy)-5,5-dimethyl-6H-benzo[h]quinazolin-7-yl]-2-hydroxy-N-methyl-acetamide], on recombinant human CLK3, the IC50 is 101 to 1000 nM. In addition, the 50% growth inhibitory concentration (GI50) in the assay on CAL-51 cells (Homo sapiens, CAL-51, 72 h) is greater than 2000 nM; in the assay with MDA-MB-231 cells (Homo sapiens, MDA-MB-231, 72 h), greater than 2000 nM.
In the case of `CC(C)CN(C)c1c(O[C@H]2CC[C@H](N)CC2)ccc2c1CC(C)(C)c1c(N)ncnc1-2` [Example 106, 8-(trans-4-aminocyclohexoxy)-N7-isobutyl-N7,5,5-trimethyl-6H-benzo[h]quinazoline-4,7-diamine], the IC50 at recombinant human CLK3 is 30 to 100 nM. In addition, the GI50 is 100 to 2000 nM in the assay on CAL-51 cells (Homo sapiens, CAL-51, 72 h) and 100 to 2000 nM in the assay with MDA-MB-231 cells (Homo sapiens, MDA-MB-231, 72 h).
Turning to `COc1ccc2c(c1NCC[C@@H]1CNC(=O)O1)CC(C)(C)c1c(N)ncnc1-2` [Example 89, (5R)-5-[2-[(4-amino-8-methoxy-5,5-dimethyl-6H-benzo[h]quinazolin-7-yl)amino]ethyl]oxazolidin-2-one], the half-inhibitory concentration (IC50) on recombinant human CLK3 was in the range of 101 to 1000 nM. Besides, the concentration for 50% growth inhibition (GI50) in the assay with CAL-51 cells (Homo sapiens, CAL-51, 72 h) was 100 to 2000 nM; in the assay on MDA-MB-231 cells (Homo sapiens, MDA-MB-231, 72 h), 100 to 2000 nM.
Regarding `CN(CCC#N)c1c(O[C@H]2CC[C@H](N3CCOCC3)CC2)ccc2c1CC(C)(C)c1c(N)ncnc1-2` [Example 52, 3-[[4-amino-5,5-dimethyl-8-(trans-4-morpholinocyclohexoxy)-6H-benzo[h]quinazolin-7-yl]-methyl-amino]propanenitrile], the IC50 at recombinant human CLK3 is less than 30 nM. In addition, the 50% growth inhibitory concentration (GI50) with CAL-51 cells (Homo sapiens, CAL-51, 72 h) is less than 100 nM; with MDA-MB-231 cells (Homo sapiens, MDA-MB-231, 72 h), less than 100 nM.
Turning to `CC1(C)Cc2c(ccc3c2N(CCC#N)CCO3)-c2ncnc(N)c21` [Example 117, 3-(7-amino-6,6-dimethyl-3,5-dihydro-2H-quinazolino[7,8-f][1,4]benzoxazin-4-yl)propanenitrile], on recombinant human CLK3, the IC50 was 30 to 100 nM. Moreover, the GI50 in the assay on CAL-51 cells (Homo sapiens, CAL-51, 72 h) was less than 100 nM; in the assay on MDA-MB-231 cells (Homo sapiens, MDA-MB-231, 72 h), 100 to 2000 nM.
`CC1(C)Cc2c(ccc(O[C@H]3CC[C@@H](N4CCOCC4)CC3)c2NC[C@@H]2CNC(=O)O2)-c2ncnc(N)c21` [Example 130, (5R)-5-[[[4-amino-5,5-dimethyl-8-(cis-4-morpholinocyclohexoxy)-6H-benzo[h]quinazolin-7-yl]amino]methyl]oxazolidin-2-one]: the concentration for half-maximal inhibition (IC50) on recombinant human CLK3 was less than 30 nM. Further, the GI50 with CAL-51 cells (Homo sapiens, CAL-51, 72 h) was 100 to 2000 nM; in the assay on MDA-MB-231 cells (Homo sapiens, MDA-MB-231, 72 h) it was greater than 2000 nM.
`CC1(C)Cc2c(ccc(Br)c2NC[C@@H]2CNC(=O)O2)-c2ncnc(N)c21` [Example 121, (5R)-5-[[(4-amino-8-bromo-5,5-dimethyl-6H-benzo[h]quinazolin-7-yl)amino]methyl]oxazolidin-2-one]: the 50% inhibitory concentration (IC50) on recombinant human CLK3 was less than 30 nM. Moreover, the 50% growth inhibitory concentration (GI50) with CAL-51 cells (Homo sapiens, CAL-51, 72 h) was less than 100 nM; in the assay on MDA-MB-231 cells (Homo sapiens, MDA-MB-231, 72 h) it was less than 100 nM.
Regarding `CC1(C)Cc2c(ccc(O[C@H]3CC[C@H](N)CC3)c2N2CCC(O)C2)-c2ncnc(N)c21` (single isomer, unassigned) [Example 15, 1-[4-amino-8-(trans-4-aminocyclohexoxy)-5,5-dimethyl-6H-benzo[h]quinazolin-7-yl]pyrrolidin-3-ol], on recombinant human CLK3, the concentration for half-maximal inhibition (IC50) is less than 30 nM. For the same molecule, the concentration for 50% growth inhibition (GI50) in the assay with CAL-51 cells (Homo sapiens, CAL-51, 72 h) is less than 100 nM; in the assay with MDA-MB-231 cells (Homo sapiens, MDA-MB-231, 72 h), 100 to 2000 nM.
Taken in the same sequence, the figures for `COCCNc1c(O[C@H]2CC[C@H](N)CC2)ccc2c1CC(C)(C)c1c(N)ncnc1-2` [Example 18, 8-(trans-4-aminocyclohexoxy)-N7-(2-methoxyethyl)-5,5-dimethyl-6H-benzo[h]quinazoline-4,7-diamine] were 101 to 1000 nM, 100 to 2000 nM and 100 to 2000 nM.
For the molecule `CN(CCC#N)c1c(OC2CCNCC2)ccc2c1CC(C)(C)c1c(N)ncnc1-2` [Example 93, 3-[[4-amino-5,5-dimethyl-8-(4-piperidyloxy)-6H-benzo[h]quinazolin-7-yl]-methyl-amino]propanenitrile], at recombinant human CLK3, the IC50 is less than 30 nM. The concentration for 50% growth inhibition (GI50) with CAL-51 cells (Homo sapiens, CAL-51, 72 h) was less than 100 nM; in the assay on MDA-MB-231 cells (Homo sapiens, MDA-MB-231, 72 h), less than 100 nM.
In the case of `CN(CC1(C#N)CC1)c1c(O[C@H]2CC[C@H](N)CC2)ccc2c1CC(C)(C)c1c(N)ncnc1-2` [Example 48, 1-[[[4-amino-8-(trans-4-aminocyclohexoxy)-5,5-dimethyl-6H-benzo[h]quinazolin-7-yl]-methyl-amino]methyl]cyclopropanecarbonitrile], the IC50 on recombinant human CLK3 was less than 30 nM. For the same molecule, the GI50 is less than 100 nM in the assay with CAL-51 cells (Homo sapiens, CAL-51, 72 h) and less than 100 nM with MDA-MB-231 cells (Homo sapiens, MDA-MB-231, 72 h).
For the molecule `CN(c1c(O[C@H]2CC[C@H](N)CC2)ccc2c1CC(C)(C)c1c(N)ncnc1-2)S(=O)(=O)c1ccc(F)cc1` [Example 114, N-[4-amino-8-(trans-4-aminocyclohexoxy)-5,5-dimethyl-6H-benzo[h]quinazolin-7-yl]-4-fluoro-N-methyl-benzenesulfonamide], at recombinant human CLK3, the half-maximal inhibitory concentration (IC50) was less than 30 nM. Further, the GI50 is less than 100 nM in the assay on CAL-51 cells (Homo sapiens, CAL-51, 72 h) and less than 100 nM with MDA-MB-231 cells (Homo sapiens, MDA-MB-231, 72 h).
As for `CC1(C)Cc2c(ccc(O[C@H]3CC[C@H](N)CC3)c2N2CCC(C#N)C2)-c2ncnc(N)c21` (single isomer, unassigned) [Example 49, 1-[4-amino-8-(trans-4-aminocyclohexoxy)-5,5-dimethyl-6H-benzo[h]quinazolin-7-yl]pyrrolidine-3-carbonitrile], the IC50 on recombinant human CLK3 was less than 30 nM. Further, the GI50 was less than 100 nM in the assay with CAL-51 cells (Homo sapiens, CAL-51, 72 h) and less than 100 nM with MDA-MB-231 cells (Homo sapiens, MDA-MB-231, 72 h).
